Measured values from patent US9187726B2, “Culturing a microorganism in a medium with an elevated level of a carboxylate counterion source” (ExxonMobil Research and Engineering Company, priority 2010, dated 2015).

Assays:
[1] = test system: SGI-004 Synechococcus strain; test: Tolerance to free fatty acids in media with increased calcium and magnesium; type: cell-based; details: for effect on free fatty acid tolerance / viability: added to 2X and 4X of standard BG-11
Experimental: (§1) The Synechocystis sp. PCC 6803 strain and the SGI-004 Synechococcus strain were both tested to see if calcium and/or magnesium could alleviate the toxic effects of free fatty acid in the media. BG-11 media was used to culture the cells in multiwall plates. Calcium (CaCl2) and magnesium (MgCl2) were added alone and in combination to achieve a concentration two-fold (2×) and four-fold (4×) that of standard BG-11 media. […] PCC 6803. (Table 3). […] At a concentration double that of the BG-11 recipe (approximately 0.5 mM), calcium added a tolerance of up to about 100 mg/L more of free fatty acid for both of the strains.

[2] = test system: Synechocystis sp. PCC 6803; test: as above; type: cell-based; details: for effect on free fatty acid tolerance: added to 2X and 4X of standard BG-11
Experimental: as §1

[3] = test system: Synechocystis sp. PCC 6803; test: Growth in calcium-enhanced media up to about one hundred times BG-11 calcium; type: cell-based; details: calcium up to about one hundred times standard BG-11 (up to ~25 mM)
Experimental: For large-scale production of fatty acids, calcium (and/or magnesium) supplementation would allow for fatty acids to accumulate during a production phase to be harvested one or more times in a non-continuous mode. Calcium concentrations up to about one hundred times the concentration of calcium in standard BG-11 medium (that is, up to ˜25 mM) have been tested on Synechocystis sp.

PH-SGI-E-0159 = test: Long-term effect of calcium addition on fatty acid-producing strain, one copy Cc1FatB1; type: cell-based, Synechocystis sp. PCC 6803; details: with or without extra calcium addition
Source text: (§2) FIG. 2 provides data on the growth of genetically modified cyanobacterial strains producing free fatty acids in calcium-supplemented media. FIG. 2a is a graph showing the post-IPTG induction growth of cultures (as measure by OD at 730 nm) of Synechocystis PCC 6803 transformed with one (PH-SGI-E-0159-1; “159”) or three (PH-SGI-E-0166-1; “166”) copies of the Cc1FatB1 Cuphea carthagenensis acyl-ACP thioesterase (diamonds, strain 159 in standard BG-11 media; squares, strain 159 in standard BG-11 media supplemented to 10-fold the amount of calcium of BG-11 (˜2.5 mM); triangles, cyanobacterial strain 166 in standard BG-11 media; circles, strain 166 in standard BG-11 media supplemented to 10-fold the amount of calcium of BG-11 (˜2.5 mM)). FIG. 2b is a graph showing the post-IPTG induction free fatty acid production in mg/L of cultures of Synechocystis strains transformed with one (PH-SGI-E-0159-1; “159”) or three (PH-SGI-E-0166-1; “166”) copies of the Cc1FatB1 Cuphea carthagenensis acyl-ACP thioesterase (diamonds, strain 159 in standard BG-11 media; squares, strain 159 in standard BG-11 media supplemented to 10-fold the amount of calcium of BG-11 (˜2.5 mM); triangles, cyanobacterial strain 166 in standard BG-11 media; circles, strain 166 in standard BG-11 media supplemented to 10-fold the amount of calcium of BG-11 (˜2.5 mM)). […]

PH-SGI-E-0166 = test: Long-term effect of calcium addition on fatty acid-producing strain, three copies Cc1FatB1; type: cell-based, Synechocystis sp. PCC 6803; details: ~10× calcium concentration; culture without extra calcium completely bleached after ~12 days of IPTG induction
Source text: as §2

[4] = calcium at double the BG-11 recipe (approximately 0.5 mM)

Compound: [Cl-].[Cl-].[Mg+2] [magnesium, MgCl2]
- effect on free fatty acid tolerance / viability [1]: no discernible protective effect
- effect on free fatty acid tolerance [2]: increased free fatty tolerance

Compound: [Ca+2].[Cl-].[Cl-] [calcium, calcium chloride]
- effect on free fatty acid tolerance / viability [1]: increased free fatty acid tolerance
- added tolerance, more free fatty acid tolerated [1, 4]: up to 100 mg/L
- effect on free fatty acid tolerance [2]: increased free fatty tolerance
- added tolerance, more free fatty acid tolerated [2, 4]: up to 100 mg/L
- growth defects in calcium-enhanced media [3]: no growth defects
- time cultures continued to grow and stayed green (PH-SGI-E-0159): at least 31 days
- culture survival (PH-SGI-E-0166): survived
